Measured values published in article PMC10135569, “Does Enhanced Structural Maturity of hiPSC-Cardiomyocytes Better for the Detection of Drug-Induced Cardiotoxicity?” (Biomolecules, 2023).

Columns and labels:
[1] = tested on: hiPSC-CMs (iCell2 Cardiomyocytes) 2D monolayers; test: Membrane potential (action potential) recordings with FluoVolt voltage-sensitive dye on the CellOPTIQ platform; assay type: cell-based, human; conditions: for activity at 0.03 µM / activity at 0.1 µM / activity at 0.3 µM / activity at 1 µM: Homo sapiens, Cardiomyocyte, 0.5 h, 30 min, delta over DMSO 0.1%
Method: (§1) Cardiomyocytes (FUJIFILM Cellular Dynamics, Madison, WI, USA) were kept at −190 °C and prepared for culture as per the manufacturer’s instructions.
(§2) Standard fibronectin vs. Matrix Plus well coating: The cells were cultured using two different coatings in a humidified incubator at 37 °C with 5% CO2. First, 96-well glass-bottomed plates (MatTek, Ashland, MA) were coated with fibronectin ([…] in PBS supplemented with Ca^2+ and Mg^2+; Sigma, St. Louis, MO, USA) (defining FM). Second, CELLvo^TM Matrix Plus (StemBioSys, San Antonio, TX, USA), which were pre-coated on 96 well glass bottom plates and kept at 4 °C. On the day of plating, CELLvo^TM Matrix Plus plates were transferred to room temperature, rehydrated with phosphate buffer saline (PBS), incubated for 1 h at 37 °C, and washed 2× with PBS. Cells were introduced at a density of 50,000 cells/well to allow the formation of a confluent monolayer in each well (defined as MM). The maintenance protocols followed the manufacturer’s instructions and used the iCell^2 Cardiomyocytes Maintenance media for media changes every 2 days. Experiments were performed between days 5 and 6, as recommended by the manufacturers. Before beginning an experiment, cells were washed in serum-free media (SF media) (Fluorobrite DMEM, Gibco, Thermo Fisher Scientific, Horsham, UK).
(§3) The drug powders were dissolved in DMSO, and four stock concentrations at 1000× the final target concentration were prepared in DMSO. For the experiment, an intermediate concentration 2× the target solution was prepared in SF media. The addition of drugs to the cells was accomplished by replacing 50% of the well volume with the intermediate 2× solution. The same procedure was done for vehicle control using DMSO. The experimental number n = 8/concentration/testing compound in the FM or MM condition, and n = 36 for each positive or negative control in the FM or MM condition.
Cultures of hiPSC-CMs (5–6 days post-plating) were treated with FluoVolt dye (1:1000, Invitrogen, Cat# F10488) in SF media and incubated for 20 min at 37 °C with 5% CO2 and 80% humidity. Multi-well plates were placed in the environmentally controlled stage incubator (37 °C, 5% CO2, water-saturated air atmosphere) (Okolab Inc. Burlingame, CA) of the CellOPTIQ® platform (Clyde Biosciences Ltd., Glasgow, Scotland). The FluoVolt signal was recorded from a 0.2 mm × 0.2 mm area using a 40× (numerical aperture: NA 0.6) Excitation wavelength was 470 ± 10 nm using a light-emitting diode (LED), and emitted light was collected by two photomultipliers (PMTs) at 510–560 nm (channel 1) and 590–650 nm (channel 2), respectively. LED, PMT, and associated power supplies and amplifiers were supplied by Cairn Research Ltd. (Kent, UK) and digitized at 10 kHz and stored on a computer hard drive. In the case of FluoVolt-based action potential recordings, the short wavelength (channel 1, […]) was analyzed for action potential features.
(§4) The dye FluoVolt is loaded into the surface membrane (outer leaflet), and the dye remains within the membrane for many dots, allowing intermittent voltage measurements over the experimental period. In this study, measurements were restricted to within 30 mins of application of the drug. The measurements were made on the same area before/after drug/DMSO addition. […] Baseline spontaneous electrical activity and the associated contractility signal were recorded by capturing 10 s segments of fluorescent signal and video for 2D plates and 15 s for organoids from each well prior to compound addition. Drugs were tested at four concentrations in n = 8 independent replicates (i.e., 8 wells from a single plating) at each concentration. A vehicle control was included for each drug. A 10 s or 15 s recording was then taken 30 min after exposure to the drug or vehicle with only one concentration applied/well.

[2] = tested on: hiPSC-CMs (iCell2 Cardiomyocytes) 2D monolayers; test: Contractility measurements using video imaging (ContractilityTool / MUSCLEMOTION); assay type: cell-based, human; conditions: Homo sapiens, Cardiomyocyte, 0.5 h, 30 min, delta over DMSO 0.1%
Method: as §1, §2, §3
as §4, with “applied/well. Offline analysis was performed using proprietary software (CellOPTIQ®).” for “applied/well.”
Short periods (10 s or 15 s) of video were analyzed using the ContractilityTool application (developed by F.L. Burton), which is an implementation of the MUSCLEMOTION algorithm.

[3] = FM monolayer, read-out: APD30 (%DD)
[4] = FM monolayer, read-out: APD90 (%DD)
[5] = FM monolayer, read-out: CL (%DD)
[6] = FM monolayer, read-out: Trise (%DD)
[7] = MM monolayer, read-out: APD30 (%DD)
[8] = MM monolayer, read-out: APD90 (%DD)
[9] = MM monolayer, read-out: CL (%DD)
[10] = MM monolayer, read-out: Trise (%DD)
[11] = FM monolayer, read-out: CtAmp (%DD)
[12] = FM monolayer, read-out: CtD50 (%DD)
[13] = MM monolayer, read-out: CtAmp (%DD)
[14] = MM monolayer, read-out: CtD50 (%DD)

Question: Which activity at 0.03 µM [1, 3] does the source give for `C[N+](C)(C)CCOC(N)=O` [Carbachol] here?
Answer: 97 ± 2.3%

Question: And the activity at 0.03 µM [1, 4]?
Answer: 99 ± 1.4%

Question: And the activity at 0.03 µM [1, 5]?
Answer: 99 ± 2.6%

Question: And the activity at 0.03 µM [1, 6]?
Answer: 104 ± 11.8%

Question: And the activity at 0.1 µM [1, 3]?
Answer: 104 ± 2.6%

Question: And the activity at 0.1 µM [1, 4]?
Answer: 100 ± 1.2%

Question: And the activity at 0.1 µM [1, 5]?
Answer: 105 ± 0.6%

Question: What about the activity at 0.1 µM [1, 6] of the same compound?
Answer: 125 ± 18.5%

Question: And the activity at 0.3 µM [1, 3]?
Answer: 102 ± 2.9%

Question: And the activity at 0.3 µM [1, 4]?
Answer: 103 ± 1%

Question: What about the activity at 0.3 µM [1, 5] of the same compound?
Answer: 109 ± 1%

Question: And the activity at 0.3 µM [1, 6]?
Answer: 118 ± 17.5%

Question: What about the activity at 1 µM [1, 3] of the same compound?
Answer: 103 ± 1.6%

Question: And the activity at 1 µM [1, 4]?
Answer: 110 ± 1.1%

Question: What about the activity at 1 µM [1, 5] of the same compound?
Answer: 114 ± 0.5%

Question: And the activity at 1 µM [1, 6]?
Answer: 95 ± 17.7%

Question: What about the activity at 0.03 µM [1, 7] of the same compound?
Answer: 105 ± 2.2%

Question: And the activity at 0.03 µM [1, 8]?
Answer: 103 ± 1.8%

Question: What about the activity at 0.03 µM [1, 9] of the same compound?
Answer: 106 ± 0.3%

Question: What about the activity at 0.03 µM [1, 10] of the same compound?
Answer: 186 ± 29%

Question: What about the activity at 0.1 µM [1, 7] of the same compound?
Answer: 106 ± 2.4%

Question: What about the activity at 0.1 µM [1, 8] of the same compound?
Answer: 107 ± 1.1%

Question: And the activity at 0.1 µM [1, 9]?
Answer: 115 ± 0.6%

Question: What about the activity at 0.1 µM [1, 10] of the same compound?
Answer: 144 ± 20.7%

Question: And the activity at 0.3 µM [1, 7]?
Answer: 111 ± 1.9%

Question: What about the activity at 0.3 µM [1, 8] of the same compound?
Answer: 111 ± 1.1%

Question: What about the activity at 0.3 µM [1, 9] of the same compound?
Answer: 122 ± 0.9%

Question: What about the activity at 0.3 µM [1, 10] of the same compound?
Answer: 143 ± 22.1%

Question: What about the activity at 1 µM [1, 7] of the same compound?
Answer: 120 ± 2.3%

Question: And the activity at 1 µM [1, 8]?
Answer: 118 ± 1%

Question: What about the activity at 1 µM [1, 9] of the same compound?
Answer: 131 ± 0.7%

Question: And the activity at 1 µM [1, 10]?
Answer: 143 ± 17.8%

Question: And the “effect on cycle length (in words)” value ([1]; both FM and MM monolayers, concentration not given)?
Answer: concentration-dependent increase

Question: What about the activity at 0.03 µM [2, 11] of the same compound?
Answer: 94 ± 15.9%

Question: And the activity at 0.03 µM [2, 12]?
Answer: 104 ± 2.1%

Question: And the activity at 0.1 µM [2, 11]?
Answer: 85 ± 10.4%

Question: What about the activity at 0.1 µM [2, 12] of the same compound?
Answer: 103 ± 2%

Question: And the activity at 0.3 µM [2, 11]?
Answer: 102 ± 21.3%

Question: And the activity at 0.3 µM [2, 12]?
Answer: 108 ± 2.1%

Question: What about the activity at 1 µM [2, 11] of the same compound?
Answer: 109 ± 13.8%

Question: And the activity at 1 µM [2, 12]?
Answer: 107 ± 3.7%

Question: And the activity at 0.03 µM [2, 13]?
Answer: 86 ± 6.4%

Question: What about the activity at 0.03 µM [2, 14] of the same compound?
Answer: 98 ± 1.5%

Question: And the activity at 0.1 µM [2, 13]?
Answer: 135 ± 12.9%

Question: What about the activity at 0.1 µM [2, 14] of the same compound?
Answer: 102 ± 1.8%

Question: And the activity at 0.3 µM [2, 13]?
Answer: 118 ± 12.9%

Question: And the activity at 0.3 µM [2, 14]?
Answer: 111 ± 2.1%

Question: And the activity at 1 µM [2, 13]?
Answer: 114 ± 18.4%

Question: And the activity at 1 µM [2, 14]?
Answer: 118 ± 1.5%
